Data taken from patent US6689773B2, “Uracil substituted phenyl sulfamoyl carboxamides” (BASF Aktiengesellschaft, priority 2000, dated 2004).

How the values were obtained:
Type in all cases: in vivo
[1] = test system: CHEAL, Lambsquarters, Chenopodium album, L. Common; experiment: Postemergence herbicidal evaluation (Example 147); details: rating scale 0-9, two to three weeks after treatment
Description: (§1) Seedling plants were grown in jiffy flats for about two weeks. The test compounds were dispersed in 80/20 acetone/water mixtures containing 1.0% SUN-IT®II, a methylated seed oil, in sufficient quantities to provide the equivalent of about 0.016 to 0.032 kg per hectare of active compound when applied to the plants through a spray nozzle operating at 40 psi for a predetermined time. After spraying, the plants were placed on greenhouse benches and were cared for in accordance with conventional greenhouse procedures. Approximately two to three weeks after treatment, the seedling plants were examined and rated according to the rating scale (0-9) set forth below. Where more than one test is involved for a given compound, the data are averaged. [table] The scale is based upon a visual observation of plant stand, vigor, malformation, size, chlorosis and overall plant appearance as compared with a control. Plant species employed in these evaluations are reported by header abbreviation, common name and scientific name. [table]

[2] = test system: AMBEL, Ragweed, Common, Ambrosia artemiisifolia, L.; experiment: Postemergence herbicidal evaluation (Example 147); details: rating scale 0-9, two to three weeks after treatment
Description: as §1

[3] = test system: ECHCG, Barnyardgrass, Echinochloa crusgalli, (L.)Beau; experiment: Postemergence herbicidal evaluation (Example 147); details: rating scale 0-9, two to three weeks after treatment
Description: as §1

[4] = test system: SETVI, Green foxtail, Setaria viridis, (L.)Beau; experiment: Postemergence herbicidal evaluation (Example 147); details: rating scale 0-9, two to three weeks after treatment
Description: as §1

[5] = test system: IPOHE, Morningglory, Ivyleaf, Ipomoea hederacea, (L)Jacq.; experiment: Postemergence herbicidal evaluation (Example 147); details: rating scale 0-9, two to three weeks after treatment
Description: as §1

[6] = test system: TRZAW, Winter wheat, Tritium Aestivum, L. (Winter); experiment: Postemergence herbicidal evaluation (Example 147); details: rating scale 0-9, two to three weeks after treatment
Description: as §1

[7] = test system: ABUTH, Velvetleaf, Abutilon theophrasti, Medic.; experiment: Postemergence herbicidal evaluation (Example 147); details: rating scale 0-9, two to three weeks after treatment
Description: as §1

[8] = test system: GLXMA, Soybean, Glycine max, (L.) Merr.; experiment: Postemergence herbicidal evaluation (Example 147); details: rating scale 0-9, two to three weeks after treatment
Description: as §1

[9] = test system: ZEAMX, Field corn, Zea mays L.; experiment: Postemergence herbicidal evaluation (Example 147); details: rating scale 0-9, two to three weeks after treatment
Description: as §1

[10] = test system: XANST, Cocklebur, Xanthium strumariam; experiment: Postemergence herbicidal evaluation (Example 147); details: rating scale 0-9, two to three weeks after treatment
Description: as §1

[11] = test system: DIGSA, Crabgrass, (Hairy) L, Digitaria sanguinalis, (L)Scop; experiment: Postemergence herbicidal evaluation (Example 147); details: rating scale 0-9, two to three weeks after treatment
Description: as §1

[12] = test system: ALOMY, Blackgrass, Alopecurus myosuroides; experiment: Postemergence herbicidal evaluation (Example 147); details: rating scale 0-9, two to three weeks after treatment
Description: as §1

[13] = test system: CHEAL, Lambsquarters, Chenopodium album, L. Common; experiment: Preemergence herbicidal evaluation (Example 148); details: rating scale 0-9, two to four weeks after treatment
Description: (§2) The scale is based upon a visual observation of plant stand, vigor, malformation, size, chlorosis and overall plant appearance as compared with a control.
(§3) The herbicidal activity of the compounds of the present invention was evaluated by the following tests wherein the seeds of a variety of monocotyledonous and dicotyledonous plants were separately mixed with potting soil and planted on top of approximately one inch of soil in separate pint cups. After planting, the cups were sprayed with the selected aqueous acetone solution containing test compound in sufficient quantity to provide the equivalent of about 0.125 to 0.250 kg per hectare of test compound per cup. The treated cups were then placed on greenhouse benches, watered and cared for in accordance with conventional greenhouse procedures. From two to four weeks after treatment, the tests were terminated and each cup was examined and rated according to the rating system provided in Example 94. When more than one test was performed for a given compound, the data were averaged.

[14] = test system: AMBEL, Ragweed, Common, Ambrosia artemiisifolia, L.; experiment: Preemergence herbicidal evaluation (Example 148); details: rating scale 0-9, two to four weeks after treatment
Description: as §2, §3

[15] = test system: ECHCG, Barnyardgrass, Echinochloa crusgalli, (L.)Beau; experiment: Preemergence herbicidal evaluation (Example 148); details: rating scale 0-9, two to four weeks after treatment
Description: as §2, §3

[16] = test system: SETVI, Green foxtail, Setaria viridis, (L.)Beau; experiment: Preemergence herbicidal evaluation (Example 148); details: rating scale 0-9, two to four weeks after treatment
Description: as §2, §3

[17] = test system: IPOHE, Morningglory, Ivyleaf, Ipomoea hederacea, (L)Jacq.; experiment: Preemergence herbicidal evaluation (Example 148); details: rating scale 0-9, two to four weeks after treatment
Description: as §2, §3

[18] = test system: TRZAW, Winter wheat, Tritium Aestivum, L. (Winter); experiment: Preemergence herbicidal evaluation (Example 148); details: rating scale 0-9, two to four weeks after treatment
Description: as §2, §3

[19] = test system: ABUTH, Velvetleaf, Abutilon theophrasti, Medic.; experiment: Preemergence herbicidal evaluation (Example 148); details: rating scale 0-9, two to four weeks after treatment
Description: as §2, §3

[20] = test system: GLXMA, Soybean, Glycine max, (L.) Merr.; experiment: Preemergence herbicidal evaluation (Example 148); details: rate 0.125 kg/ha, rating scale 0-9, two to four weeks after treatment
Description: as §2, §3

[21] = test system: ZEAMX, Field corn, Zea mays L.; experiment: Preemergence herbicidal evaluation (Example 148); details: rating scale 0-9, two to four weeks after treatment
Description: as §2, §3

[22] = test system: DIGSA, Crabgrass, (Hairy) L, Digitaria sanguinalis, (L)Scop; experiment: Preemergence herbicidal evaluation (Example 148); details: rating scale 0-9, two to four weeks after treatment
Description: as §2, §3

[23] = test system: ALOMY, Blackgrass, Alopecurus myosuroides; experiment: Preemergence herbicidal evaluation (Example 148); details: rating scale 0-9, two to four weeks after treatment
Description: as §2, §3

CCN(C)S(=O)(=O)NC(=O)c1cc(-n2c(=O)cc(C(F)(F)F)n(C)c2=O)c(F)cc1Cl [Example 66]
8.0: Postemergence herbicidal rating CHEAL ([1]; rate 0.016 kg/ha) | Postemergence herbicidal rating ECHCG ([3]; rate 0.016 kg/ha) | Postemergence herbicidal rating ECHCG ([3]; rate 0.032 kg/ha) | Postemergence herbicidal rating SETVI ([4]; rate 0.016 kg/ha) | Postemergence herbicidal rating GLXMA ([8]; rate 0.016 kg/ha) | Preemergence herbicidal rating ECHCG ([15]; rate 0.25 kg/ha) | Preemergence herbicidal rating DIGSA ([22]; rate 0.25 kg/ha)
6.0: Postemergence herbicidal rating DIGSA ([11]; rate 0.032 kg/ha) | Preemergence herbicidal rating SETVI ([16]; rate 0.25 kg/ha)
6.5: Postemergence herbicidal rating TRZAW ([6]; rate 0.032 kg/ha)
2.0: Postemergence herbicidal rating ALMOY ([12]; rate 0.032 kg/ha) | Preemergence herbicidal rating ZEAMX ([21]; rate 0.25 kg/ha) | Preemergence herbicidal rating ALMOY ([23]; rate 0.25 kg/ha)
4.0: Preemergence herbicidal rating ECHCG ([15]; rate 0.125 kg/ha) | Preemergence herbicidal rating SETVI ([16]; rate 0.125 kg/ha) | Preemergence herbicidal rating DIGSA ([22]; rate 0.125 kg/ha)
1.0: Postemergence herbicidal rating ALMOY ([12]; rate 0.016 kg/ha) | Preemergence herbicidal rating TRZAW ([18]; rate 0.125 kg/ha) | Preemergence herbicidal rating TRZAW ([18]; rate 0.25 kg/ha) | Preemergence herbicidal rating ZEAMX ([21]; rate 0.125 kg/ha)
0.0: Preemergence herbicidal rating GLXMA [20] | Preemergence herbicidal rating ALMOY ([23]; rate 0.125 kg/ha)
7.5: Postemergence herbicidal rating ZEAMX ([9]; rate 0.032 kg/ha)
7.0: Postemergence herbicidal rating ZEAMX ([9]; rate 0.016 kg/ha)
5.0: Postemergence herbicidal rating TRZAW ([6]; rate 0.016 kg/ha) | Postemergence herbicidal rating DIGSA ([11]; rate 0.016 kg/ha)
9.0: Postemergence herbicidal rating CHEAL ([1]; rate 0.032 kg/ha) | Postemergence herbicidal rating AMBEL ([2]; rate 0.016 kg/ha) | Postemergence herbicidal rating AMBEL ([2]; rate 0.032 kg/ha) | Postemergence herbicidal rating SETVI ([4]; rate 0.032 kg/ha) | Postemergence herbicidal rating IPOHE ([5]; rate 0.016 kg/ha) | Postemergence herbicidal rating IPOHE ([5]; rate 0.032 kg/ha) | Postemergence herbicidal rating ABUTH ([7]; rate 0.016 kg/ha) | Postemergence herbicidal rating ABUTH ([7]; rate 0.032 kg/ha) | Postemergence herbicidal rating GLXMA ([8]; rate 0.032 kg/ha) | Postemergence herbicidal rating XANST ([10]; rate 0.016 kg/ha) | Postemergence herbicidal rating XANST ([10]; rate 0.032 kg/ha) | Preemergence herbicidal rating CHEAL ([13]; rate 0.125 kg/ha) | Preemergence herbicidal rating CHEAL ([13]; rate 0.25 kg/ha) | Preemergence herbicidal rating AMBEL ([14]; rate 0.125 kg/ha) | Preemergence herbicidal rating AMBEL ([14]; rate 0.25 kg/ha) | Preemergence herbicidal rating IPOHE ([17]; rate 0.125 kg/ha) | Preemergence herbicidal rating IPOHE ([17]; rate 0.25 kg/ha) | Preemergence herbicidal rating ABUTH ([19]; rate 0.125 kg/ha) | Preemergence herbicidal rating ABUTH ([19]; rate 0.25 kg/ha)

Cn1c(C(F)(F)F)cc(=O)n(-c2cc(C(=O)NS(=O)(=O)NC(C)(C)C)c(Cl)cc2F)c1=O [Example 65]
3.0: Postemergence herbicidal rating ALMOY ([12]; rate 0.032 kg/ha) | Preemergence herbicidal rating SETVI ([16]; rate 0.125 kg/ha)
6.0: Postemergence herbicidal rating DIGSA ([11]; rate 0.016 kg/ha) | Preemergence herbicidal rating SETVI ([16]; rate 0.25 kg/ha)
7.5: Postemergence herbicidal rating ZEAMX ([9]; rate 0.016 kg/ha)
8.0: Postemergence herbicidal rating CHEAL ([1]; rate 0.016 kg/ha) | Postemergence herbicidal rating ECHCG ([3]; rate 0.016 kg/ha) | Postemergence herbicidal rating SETVI ([4]; rate 0.016 kg/ha) | Postemergence herbicidal rating SETVI ([4]; rate 0.032 kg/ha) | Postemergence herbicidal rating GLXMA ([8]; rate 0.016 kg/ha) | Postemergence herbicidal rating ZEAMX ([9]; rate 0.032 kg/ha) | Postemergence herbicidal rating DIGSA ([11]; rate 0.032 kg/ha) | Preemergence herbicidal rating ECHCG ([15]; rate 0.125 kg/ha)
0.0: Preemergence herbicidal rating ZEAMX ([21]; rate 0.125 kg/ha) | Preemergence herbicidal rating ALMOY ([23]; rate 0.125 kg/ha) | Preemergence herbicidal rating ALMOY ([23]; rate 0.25 kg/ha)
5.5: Postemergence herbicidal rating TRZAW ([6]; rate 0.016 kg/ha)
2.0: Postemergence herbicidal rating ALMOY ([12]; rate 0.016 kg/ha)
8.5: Postemergence herbicidal rating GLXMA ([8]; rate 0.032 kg/ha)
9.0: Postemergence herbicidal rating CHEAL ([1]; rate 0.032 kg/ha) | Postemergence herbicidal rating AMBEL ([2]; rate 0.016 kg/ha) | Postemergence herbicidal rating AMBEL ([2]; rate 0.032 kg/ha) | Postemergence herbicidal rating ECHCG ([3]; rate 0.032 kg/ha) | Postemergence herbicidal rating IPOHE ([5]; rate 0.016 kg/ha) | Postemergence herbicidal rating IPOHE ([5]; rate 0.032 kg/ha) | Postemergence herbicidal rating ABUTH ([7]; rate 0.016 kg/ha) | Postemergence herbicidal rating ABUTH ([7]; rate 0.032 kg/ha) | Postemergence herbicidal rating XANST ([10]; rate 0.016 kg/ha) | Postemergence herbicidal rating XANST ([10]; rate 0.032 kg/ha) | Preemergence herbicidal rating CHEAL ([13]; rate 0.125 kg/ha) | Preemergence herbicidal rating CHEAL ([13]; rate 0.25 kg/ha) | Preemergence herbicidal rating AMBEL ([14]; rate 0.125 kg/ha) | Preemergence herbicidal rating AMBEL ([14]; rate 0.25 kg/ha) | Preemergence herbicidal rating ECHCG ([15]; rate 0.25 kg/ha) | Preemergence herbicidal rating IPOHE ([17]; rate 0.125 kg/ha) | Preemergence herbicidal rating IPOHE ([17]; rate 0.25 kg/ha) | Preemergence herbicidal rating ABUTH ([19]; rate 0.125 kg/ha) | Preemergence herbicidal rating ABUTH ([19]; rate 0.25 kg/ha) | Preemergence herbicidal rating DIGSA ([22]; rate 0.25 kg/ha)
7.0: Preemergence herbicidal rating DIGSA ([22]; rate 0.125 kg/ha)
1.0: Preemergence herbicidal rating TRZAW ([18]; rate 0.125 kg/ha) | Preemergence herbicidal rating TRZAW ([18]; rate 0.25 kg/ha) | Preemergence herbicidal rating ZEAMX ([21]; rate 0.25 kg/ha)
6.5: Postemergence herbicidal rating TRZAW ([6]; rate 0.032 kg/ha)
